Assay results reported in ChEMBL document CHEMBL1127838, “Development of a receptor-interaction model for serotonin 5-HT2 receptor antagonists. Predicting selectivity with respect to dopamine D2 receptors” (J Med Chem, 1994).

Key:
[1] = biological target: Serotonin 2 (5-HT2) receptor (Rattus norvegicus, UniProt P30994+P08909+P14842); assay: Binding affinity at serotonin 5-hydroxytryptamine 2 receptor by [3H]ketanserin displacement.; assay type: protein assay
D(2) dopamine receptor = D(2) dopamine receptor (Rattus norvegicus, UniProt P61169); assay: Binding affinity at dopamine D2 receptor by [3H]spiperone displacement.
D(2) dopamine receptor, sequence (P61169 whole entry): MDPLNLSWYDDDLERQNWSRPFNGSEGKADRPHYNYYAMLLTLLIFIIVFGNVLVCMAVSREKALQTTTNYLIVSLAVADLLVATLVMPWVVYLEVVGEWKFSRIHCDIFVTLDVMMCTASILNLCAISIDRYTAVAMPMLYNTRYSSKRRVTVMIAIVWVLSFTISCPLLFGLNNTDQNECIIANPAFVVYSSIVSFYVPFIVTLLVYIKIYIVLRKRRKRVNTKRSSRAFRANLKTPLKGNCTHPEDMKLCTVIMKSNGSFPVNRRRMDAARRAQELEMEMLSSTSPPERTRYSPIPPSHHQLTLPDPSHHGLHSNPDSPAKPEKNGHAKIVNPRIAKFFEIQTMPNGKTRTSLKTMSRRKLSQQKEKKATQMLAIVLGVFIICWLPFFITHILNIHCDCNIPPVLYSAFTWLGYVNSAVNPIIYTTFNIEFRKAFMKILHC

| SMILES | IC50 [1] [nM] | IC50 (D(2) dopamine receptor; read-out: IC50) [nM] | also measured |
| --- | --- | --- | --- |
| CN1CCC(=C2c3ccccc3C(O)c3ccccc32)CC1 (stereo not drawn) | 2.6 | 1600 |  |
| CN1CCC(=C2c3ccccc3C=Cc3ccccc32)CC1 [CYPROHEPTADINE] |  |  | IC50 (D(2) dopamine receptor): 140 nM |
| CN1CCC(=C2c3ccccc3C=Cc3ccc(Br)cc32)CC1 |  |  | Ki (D(2) dopamine receptor): 4 nM |
| O=C1NCCN1CCN1CC=C(c2cn(-c3ccc(F)cc3)c3ccccc23)CC1 | 1.7 | 5.1 |  |

More lines, main results first:

| IC50 [1] [nM] | SMILES | IC50 (D(2) dopamine receptor; read-out: IC50) [nM] | also measured |
| --- | --- | --- | --- |
| 2.6 | O=C1NCCN1CCN1CCN([C@@H]2C[C@@H](c3ccc(F)cc3)c3cc(Cl)ccc32)CC1 |  |  |
| 3.1 | OCCN1CCN([C@@H]2C[C@@H](c3ccc(F)cc3)c3ccc(C(F)(F)F)cc32)CC1 [TEFLUDAZINE] |  |  |
